These results are taken from US5472951A, “Stabilizer for phospholipid vesicles” (Chiba Flour Milling Co., Ltd., priority 1992, dated 1995).

Data set [1] can be described thus: change of turbidity at 500 nm with time on standing at room temperature (FIG. 1). The class given is physicochemical. The conditions noted are these: 0.5% by weight. Here is the method: The dispersion stability of the vesicle is evaluated by measuring the change with time of the absorbance (turbidity) with a spectrophotometer at a wavelength of 500 to 800 nm of the gel-filtered dispersion which is left standing at room temperature. Otherwise, the dispersion stability of the vesicle can be measured by the viscosity of the vesicle dispersion with a rotating viscometer, or microscopic observation by electron microscopy.
The ability of the oligosaccharide lipid of the present invention, namely of MPDSG, for stabilizing a vesicle was evaluated as follows. 3 mg of MPDSG and 100 mg of dipalmitoyl phosphatidylcholine (hereinafter referred to "DPPC") as a phospholipid were dissolved in methanol. The methanol was evaporated by use of a rotary evaporator to form a thin film on the inside wall of an eggplant shape flask. Thereto, 5 ml of pure water and several glass beads were added, and the content of the flask was agitated at 60° C. by means of a vortex mixer to form a whitish turbid liquid. This whitish turbid liquid was treated with an extruder. […]
(§1) The stability of the vesicle dispersion which had been passed through the 0.05 μm filter was evaluated by measuring the change of absorbance (turbidity) at 500 nm with time on standing at room temperature by means of a UV-visible light spectrophotometer.

A short description of data set [2]: viscosity of vesicle dispersion on addition of calcium ion (rotating viscometer). The format is physicochemical. To be noted: 5 mM calcium chloride. Here is the method:
The stability of the vesicles was evaluated as below. The precipitate of the vesicles prepared by centrifuge was dispersed again into saline by a vortex mixer. To this sample, calcium chloride (as calcium ion) was added to be 5 mM, and the viscosity of the dispersion was measured with a rotating viscometer (Vismetron VS-AK). The viscosity of 5 cp was not changed by addition of the calcium ion.
To this dispersion, calcium chloride (as calcium ion) was added to be 5 mM, and the viscosity of the dispersion was measured with a rotating viscometer (Vismetron VS-AK).
To this dispersion, calcium chloride (as calcium ion) was added to be 5 mM, and the viscosity of the dispersion was measured with a rotating viscometer (Vismetron VS-AK). The viscosity of 5 cp was not changed by addition of the calcium ion. On the contrary, the dispersion of the vesicles prepared from powdery lipid mixture not containing DACOA (DPPC:cholesterol:distearylphosphatidic acid=10:9:0.9 in molar ratio) aggregated immediately on addition of calcium ion because of negative charge on the surface of the vesicle, causing the viscosity rise up to 11 cp.
The stability of the dispersion of the DOLG-modified vesicles having adjusted particle diameters was evaluated by addition of 5 mM calcium chloride and observing the viscosity change. The viscosity was measured at 37° C. by a rotating viscometer. […] On the contrary, a dispersion of unmodified vesicles prepared from a powdery lipid mixture containing no DOLG (DPPC:cholesterol:stearic acid=7:7:2 in molar ratio) caused immediate aggregation of the vesicles on addition of calcium ion in the same manner as above because of the negative charge on the surface of the vesicle, and the viscosity increased up to 11 cp. Accordingly, the sufficient effect of the DOLG, a vesicle stabilizer of the present invention, was confirmed in inhibiting the aggregation of vesicles by calcium ion.

Data set [3] can be described thus: particle diameter of modified vesicles. The class given is physicochemical.
In data set [4] the test system is washed human RBC (red blood cell). The conditions noted are these: washed red blood cells, 2 h, pH 7.4.
The nature of data set [5]: introduction ratio into the vesicle (phenol-sulfuric acid method). The format is physicochemical. To be noted: 3 mg MPDSG per 100 mg DPPC; dispersion diluted to 0.5% by weight, gel filtration. On the procedure:
(§2) The ratio of introduction of the stabilizer into the vesicles is determined by treating the dispersion of the vesicles by gel filtration or ultracentrifuge to remove the superfluous stabilizer which has not been introduced into the vesicles, and quantitatively determining saccharide in respective fractions by a phenol-sulfuric acid method. The stabilizer of the present invention, when employed in an amount of from 2 to 10 mol %, is introduced into the vesicles in a ratio of 90% or more.
as §1
2.4 mg of DOMG prepared in the same manner as in Example 11 was dissolved in 1 ml of chloroform. This solution was mixed with a solution of 100 mg of DPPC in 5 ml of chloroform, thereby DOMG being 2 mol % of DPPC. The solution mixture was evaporated by means of an evaporator to form a thin film on the inside wall of an eggplant-shape flask. Then 10 ml of pure water was added thereto so as to obtain a concentration of 1.0% by weight of the vesicles. The mixture was stirred with glass beads by means of a vortex mixer, and subsequently treated by an extruder to prepare a dispersion of DOMG-modified DPPC vesicles having controlled diameters of particles. A portion of the resulting dispersion was diluted to a fivefold volume with pure water to prepare a dispersion having vesicle concentration of 0.2% by weight.
The two dispersions of the DOMG-modified vesicles having concentrations of 1.0% by weight and 0.2% by weight were left standing at 4° C. for 24 hours, and were ultracentrifuged (300000 G, 60 minutes). The free DOMG in the supernatant was determined by a phenol-sulfuric acid method, and therefrom the ratio of introduction DOMG to the vesicles was calculated.
As the results, the introduction ratios were 94.3%, and 77.0% respectively at the vesicle concentrations of 1.0% by weight and 0.2% by weight. The results are shown in Table 4 together with the results of Comparative Examples 6 and 7 described later in which an oligosaccharide derivative was employed.
A general note: Size exclusion chromatography separates by hydrodynamic size, large species first.

Data set [6] in a line: introduction ratio into mixed lipid vesicles. The class given is physicochemical. To be noted: DPPC:cholesterol:distearyl phosphatidic acid:MPDSG 10:9:0.9:0.5. Here is the method:
as §2
The effect of the LPMS of the present invention on stabilization of vesicles was evaluated as follows. A powdery lipid mixture containing LPMS was prepared from dimyristoyl phosphatidylcholine, cholesterol, myristic acid, and LPMS (in molar ratio of 7:7:2:0.3) was prepared by freeze-drying. 100 ml of saline was added to 10 g of the above powdery lipid mixture, and the mixture was stirred at 4° C. for 24 hours to prepare a liquid dispersion. […] The introduction ratio of the LPMS was 85% according to saccharide determination of the supernatant liquid after centrifugation.
500 mg of a powdery lipid mixture containing MPDSG of the present invention was prepared from DPPC, cholesterol, distearyl phosphatidic acid, and MPDSG (in molar ratio of 10:9:0.9:0.5) was prepared by freeze-drying from benzene. […]

For data set [7] the following is noted: rat, in vivo.

“maltopentaose distearyl glycerol [MPDSG]”: the “inhibition of aggregation (in words)” value in data set [1] is listed as “little turbidity increase later, showing the inhibition of the aggregation”. The “turbidity rise in comparison with that of the unmodified vesicle” value in data set [1] is reported as “about 7%”. Besides, the “inhibition of aggregation of vesicles by calcium ion (in words)” value in data set [2] is “inhibited nearly completely”. The “viscosity change on addition of calcium ion (in words)” value in data set [2] is listed as “not changed”. The “viscosity of the dispersion with calcium ion” value in data set [2] (Vismetron VS-AK) was found to be 5 cp. For the same substance, the average diameter was determined as 57±12 nm in data set [3] (DPPC vesicle, 0.05 μm extruder, particle size analyzer); 55±10 nm in data set [3] (DPPC vesicle, 0.05 μm extruder, transmission electron microscope with negative stain); 300±98 nm in data set [3] (hemoglobin-enclosing vesicles, microfluidizer, before 0.2 μm extrusion). In addition, the average particle diameter in data set [3] (hemoglobin-enclosing vesicles after 0.2 μm extrusion and gel filtration) amounted to 203±50 nm; in data set [3] (mixed lipid vesicles, 0.2 μm filter by extruder), 200 nm. Besides, in data set [4], the hemolysis amounted to 5%. For the same substance, in data set [5], the “introduction ratio into the vesicle” value is 99%. Also, in data set [6], the introduction ratio was found to be 98%. Besides, the “average half-life from the blood stream” value in data set [7] was found to be 38 h.
